Results published in patent US20220135591A1, “HETEROCYCLIC COMPOUNDS AS INHIBITORS OF MONOACYLGLYCEROL LIPASE (MAGL)” (Hoffmann-La Roche Inc., priority 2019, published 2022).

molecular target: T1, MAGL (Homo sapiens, UniProt Q99685); test: 2-AG assay: MAGL inhibitory activity by hydrolysis of 2-arachidonoylglycerol to arachidonic acid, mass spectrometry; type: biochemical; conditions: 2-AG assay (values marked [b])
T1 sequence (Q99685 1-303): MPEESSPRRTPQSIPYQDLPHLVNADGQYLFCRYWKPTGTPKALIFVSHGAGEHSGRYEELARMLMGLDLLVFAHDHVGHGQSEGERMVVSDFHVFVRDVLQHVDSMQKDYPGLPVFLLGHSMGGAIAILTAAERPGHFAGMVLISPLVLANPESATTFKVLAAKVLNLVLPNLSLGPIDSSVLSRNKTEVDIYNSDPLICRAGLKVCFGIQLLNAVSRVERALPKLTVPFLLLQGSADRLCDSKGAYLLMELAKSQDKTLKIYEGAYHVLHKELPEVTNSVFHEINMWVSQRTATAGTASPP
Description: Alternatively, compounds were profiled for MAGL inhibitory activity by determining the enzymatic activity by following the hydrolysis of the natural substrate 2-arachidonoylglycerol (2-AG) resulting in arachidonic acid, which can be followed by mass spectrometry. This assay is hereinafter abbreviated “2-AG assay”.
The 2-AG assay was carried out in 384 well assay plates (PP, Greiner Cat #784201) in a total volume of 20 μL. Compound dilutions were made in 100% DMSO (VWR Chemicals 23500.297) in a polypropylene plate in 3-fold dilution steps to give a final concentration range in the assay from 12.5 μM to […]. 0.25 μL compound dilutions (100% DMSO) were added to 9 μL MAGL in assay buffer (50 mM TRIS (GIBCO, 15567-027), 1 mM EDTA (Fluka, 03690-100 mL), 0.01% (v/v) Tween. After shaking, the plate was incubated for 15 min at RT. To start the reaction, 10 μL 2-arachidonoylglycerol in assay buffer was added. The final concentrations in the assay was […] and 8 μM 2-arachidonoylglyerol. After shaking and 30 min incubation at RT, the reaction was quenched by the addition of 40 μL of ACN containing 4 μM of d8-arachidonic acid. The amount of arachidonic acid was traced by an online SPE system (Agilent Rapidfire) coupled to a triple quadrupole mass spectrometer (Agilent 6460). A C18 SPE cartridge (G9205A) was used in an ACN/water liquid setup. The mass spectrometer was operated in negative electrospray mode following the mass transitions 303.1→259.1 for arachidonic acid and 311.1→267.0 for d8-arachidonic acid. The activity of the compounds was calculated based on the ratio of intensities [arachidonic acid/d8-arachidonic acid].

Row | Structure (SMILES) | IC50
1 | O=C(NC1CN(C(=O)N2CCN(c3nc4nc(Cl)ccc4o3)CC2)C1)c1ccc(F)cc1Cl [Example 253, 2-chloro-N-[1-[4-(5-chloro-[1,3]oxazolo[4,5-b]pyridin-2-yl)piperazine-1-carbonyl]azetidin-3-yl]-4-fluorobenzamide] | ≥ 12500 nM
2 | COC1(COc2ncc(C(=O)N3CCN(c4nc5nc(Cl)ccc5o4)CC3)cc2C)CC1 [Example 171, (4-(5-chlorooxazolo[4,5-b]pyridin-2-yl)piperazin-1-yl)(6-((1-methoxycyclopropyl)methoxy)-5-methylpyridin-3-yl)methanone] | 188 nM
3 | Cc1ccc2oc(N3CCN(C(=O)c4ccc(-c5nnc(CC(C)(C)C)n5C)cc4)CC3)nc2n1 [Example 74, [4-[5-(2,2-dimethylpropyl)-4-methyl-1,2,4-triazol-3-yl]phenyl]-[4-(5-methyloxazolo[4,5-b]pyridin-2-yl)piperazin-1-yl]methanone] | 327 nM
4 | CC(C)(C)c1nc(-c2ccc(C(=O)N3CC4CCC(C3)N4c3nc4nc(Cl)ccc4o3)cc2)no1 [Example 284, [4-(5-tert-butyl-1,2,4-oxadiazol-3-yl)phenyl]-[8-(5-chlorooxazolo[4,5-b]pyridin-2-yl)-3,8-diazabicyclo[3.2.1]octan-3-yl]methanone] | 350 nM
5 | Cc1cc(C(=O)N2CCN(c3nc4nc(Cl)ccc4o3)CC2)cnc1OCC1(CC#N)CC1 [Example 162, 2-(1-(((5-(4-(5-chlorooxazolo[4,5-b]pyridin-2-yl)piperazine-1-carbonyl)-3-methylpyridin-2-yl)oxy)methyl)cyclopropyl)acetonitrile] | 230 nM
6 | Cc1ccc2oc(N3CCN(C(=O)c4ccc(-c5cn(C6(C(F)(F)F)CC6)nn5)cc4)CC3)nc2n1 [Example 108, [4-(5-methyl-[1,3]oxazolo[4,5-b]pyridin-2-yl)piperazin-1-yl]-[4-[1-[1-(trifluoromethyl)cyclopropyl]triazol-4-yl]phenyl]methanone] | 154 nM
7 | O=C(c1ccc(OCC2(C(F)(F)F)CC2)nc1Cl)N1CCN(c2nc3nc(Cl)ccc3o2)CC1 [Example 276, [4-(5-chlorooxazolo[4,5-b]pyridin-2-yl)piperazin-1-yl]-[2-chloro-6-[[1-(trifluoromethyl)cyclopropyl]methoxy]-3-pyridyl]methanone] | 1520 nM
8 | COc1cc(C(=O)N2CCN(c3nc4nc(C)ccc4o3)CC2)cnc1OCC1(C(F)(F)F)CC1 [Example 169, [5-methoxy-6-[[1-(trifluoromethyl)cyclopropyl]methoxy]-3-pyridyl]-[4-(5-methyloxazolo[4,5-b]pyridin-2-yl)piperazin-1-yl]methanone] | 138 nM
9 | CC(C)(C)c1ncn(-c2ccc(C(=O)N3CCN(c4nc5nc(Cl)ccc5o4)CC3)cc2Cl)n1 [Example 292, [4-(3-tert-butyl-1,2,4-triazol-1-yl)-3-chloro-phenyl]-[4-(5-chlorooxazolo[4,5-b]pyridin-2-yl)piperazin-1-yl]methanone] | 75 nM
10 | Cc1ccc2oc(N3CCN(C(=O)c4ccc(OCC5(C(F)(F)F)CC5)nc4Cl)CC3)nc2n1 [Example 296, [2-chloro-6-[[1-(trifluoromethyl)cyclopropyl]methoxy]-3-pyridyl]-[4-(5-methyloxazolo[4,5-b]pyridin-2-yl)piperazin-1-yl]methanone] | 2620 nM
11 | Cc1cc(C(=O)N2CCN(c3nc4nc(Cl)ccc4o3)CC2)cnc1OC[C@@H](F)CF [Example 174, (R)-(4-(5-chlorooxazolo[4,5-b]pyridin-2-yl)piperazin-1-yl)(6-(2,3-difluoropropoxy)-5-methylpyridin-3-yl)methanone] | 706 nM
12 | Cc1ccc2oc(N3CCN(C(=O)c4cnc(OCC5(C)CC5)c(F)c4)CC3)nc2n1 [Example 148, (5-fluoro-6-((1-methylcyclopropyl)methoxy)pyridin-3-yl)(4-(5-methyloxazolo[4,5-b]pyridin-2-yl)piperazin-1-yl)methanone] | 226 nM
13 | Cc1ccc2oc(N3CCN(C(=O)c4cc(O)c(-c5nnc(C(C)(C)C)o5)c(F)c4)CC3)nc2n1 [Example 118, (4-(5-(tert-butyl)-1,3,4-oxadiazol-2-yl)-3-fluoro-5-hydroxyphenyl)(4-(5-methyloxazolo[4,5-b]pyridin-2-yl)piperazin-1-yl)methanone] | 368 nM

The next compounds have a lower IC50 than those just listed; values first:

Row | IC50 | Structure (SMILES)
14 | 71 nM | CC(C)(C)n1cc(-c2ccc(C(=O)N3CCN(c4nc5nc(Cl)ccc5o4)CC3)cc2)nn1 [Example 88, (4-(1-(tert-butyl)-1H-1,2,3-triazol-4-yl)phenyl)(4-(5-chlorooxazolo[4,5-b]pyridin-2-yl)piperazin-1-yl)methanone]
15 | 57 nM | Cc1cc(C(=O)N2CCN(c3nc4nc(Cl)ccc4o3)CC2)cnc1OCC1CCCCO1 (centres unmarked) [Example 170, (4-(5-chlorooxazolo[4,5-b]pyridin-2-yl)piperazin-1-yl)(5-methyl-6-((tetrahydro-2H-pyran-2-yl)methoxy)pyridin-3-yl)methanone]
16 | 42 nM | O=C(c1ccc(-c2cn(C34CC(C3)C4)nn2)cc1)N1CCN(c2nc3nc(Cl)ccc3o2)CC1 [Example 95, (4-(1-(bicyclo[1.1.1]pentan-1-yl)-1H-1,2,3-triazol-4-yl)phenyl)(4-(5-chlorooxazolo[4,5-b]pyridin-2-yl)piperazin-1-yl)methanone]
17 | 31 nM | Cc1ccc2oc(N3CCN(C(=O)c4cc(F)c(-c5nnn(CC(C)(C)C)n5)c(F)c4)CC3)nc2n1 [Example 299, [4-[2-(2,2-dimethylpropyl)tetrazol-5-yl]-3,5-difluoro-phenyl]-[4-(5-methyloxazolo[4,5-b]pyridin-2-yl)piperazin-1-yl]methanone]
18 | 26 nM | Cc1cc(C(=O)N2CCN(c3nc4nc(Cl)ccc4o3)CC2)ccc1-c1nnc(CC(C)C)o1 [Example 275, [4-(5-chlorooxazolo[4,5-b]pyridin-2-yl)piperazin-1-yl]-[4-(5-isobutyl-1,3,4-oxadiazol-2-yl)-3-methyl-phenyl]methanone]
19 | 19 nM | Cc1ccc2oc(N3CCN(C(=O)c4ccc(-c5cn(CC(C)(C)C)nn5)cc4)CC3)nc2n1 [Example 75, [4-[1-(2,2-dimethylpropyl)triazol-4-yl]phenyl]-[4-(5-methyloxazolo[4,5-b]pyridin-2-yl)piperazin-1-yl]methanone]
20 | 11 nM | Cc1cc(C(=O)N2CCN(c3nc4nc(Cl)ccc4o3)CC2)cnc1OCC1(C)CC1(F)F (centres unmarked) [Example 158, (4-(5-chlorooxazolo[4,5-b]pyridin-2-yl)piperazin-1-yl)(6-((2,2-difluoro-1-methylcyclopropyl)methoxy)-5-methylpyridin-3-yl)methanone]
21 | 11 nM | Cc1cc(C(=O)N2CCN(c3nc4nc(Cl)ccc4o3)CC2)ccc1-c1nnc(C(C)(C)C)o1 [Example 83, [4-(5-tert-butyl-1,3,4-oxadiazol-2-yl)-3-methyl-phenyl]-[4-(5-chlorooxazolo[4,5-b]pyridin-2-yl)piperazin-1-yl]methanone]
22 | 10 nM | Cc1ccc2oc(N3CCN(C(=O)c4cc(F)c(-c5cnn(CC(C)(C)C)n5)c(F)c4)CC3)nc2n1 [Example 92, (3,5-difluoro-4-(2-neopentyl-2H-1,2,3-triazol-4-yl)phenyl)(4-(5-methyloxazolo[4,5-b]pyridin-2-yl)piperazin-1-yl)methanone]
23 | 10 nM | CC(C)(C)Cn1ncc(-c2ccc(C(=O)N3CCN(c4nc5nc(Cl)ccc5o4)CC3)cc2C#N)n1 [Example 234, 5-(4-(5-chlorooxazolo[4,5-b]pyridin-2-yl)piperazine-1-carbonyl)-2-(2-neopentyl-2H-1,2,3-triazol-4-yl)benzonitrile]
24 | 9 nM | Cc1cc(C(=O)N2CCN(c3nc4nc(Cl)ccc4o3)CC2)cnc1-c1cnn(CC(C)(C)C)n1 [Example 272, (4-(5-chlorooxazolo[4,5-b]pyridin-2-yl)piperazin-1-yl)(5-methyl-6-(2-neopentyl-2H-1,2,3-triazol-4-yl)pyridin-3-yl)methanone]
25 | 6 nM | CC(C)(C)Cn1ncc(-c2ccc(C(=O)N3CCN(c4nc5nc(Cl)ccc5o4)CC3)cc2C(F)(F)F)n1 [Example 269, (4-(5-chlorooxazolo[4,5-b]pyridin-2-yl)piperazin-1-yl)(4-(2-neopentyl-2H-1,2,3-triazol-4-yl)-3-(trifluoromethyl)phenyl)methanone]
26 | 2 nM | COc1cc(C(=O)N2CCN(c3nc4nc(C)ccc4o3)CC2)ccc1-c1cnn(CC(C)(C)C)n1 [Example 240, (3-methoxy-4-(2-neopentyl-2H-1,2,3-triazol-4-yl)phenyl)(4-(5-methyloxazolo[4,5-b]pyridin-2-yl)piperazin-1-yl)methanone]
